The text below walks through data of US20210386841A1, “COMPOSITIONS FOR TRANSFECTING mRNA INTO A CELL AND THEIR APPLICATIONS” (POLYPLUS TRANSFECTION, priority 2018, published 2021).

Series [1] has as its system Jurkat Clone E6-1 human T lymphoblast cells. Kind of series: eGFP mRNA transfection, Jurkat cells (96-well). In kind it is cell-based. As to conditions: 150 ng eGFP mRNA, 24 h. The method, then: Jurkat Clone E6-1 (ATCC® TIB-152™) human T lymphoblast cells were grown in RPMI-1640 (LONZA) with 10% of FBS (EUROBIO) and supplemented with 2 mM Glutamine (LONZA), 100 U/mL of penicillin and 100 μg/mL of streptomycin (LONZA) at 37° C. in a 5% CO2 in air atmosphere.
(§1) mRNA eGFP (996 nt, reference L-6101) from TriLink Technologies was used for the in vitro transfection experiments and expressed enhanced green fluorescent protein which is a common reporter gene (eGFP). This mRNA was capped with a Cap 0, polyadenylated and modified with 5-methylcytidine and pseudo-uridine.
(§2) One day before transfection, Caco-2, THP-1 or BJ Cells were seeded at 10 000, 25 000, or 5 000 cells per well (96-well plate format), respectively, in 125 μL of their respective complete medium and incubated at 37° C. in a 5% CO2 in air atmosphere. For Jurkat cells, 25 000 cells were seeded per well prior transfection. On the day of transfection 150 ng of mRNA was added in 11.5 μL of 5% glucose solution, mixed with a vortex and incubated for 5 minutes at rt. Then, 1 μL of 1 mM cationic liposomal formulation was added onto the diluted mRNA, mixed with a vortex and incubated for 15 minutes at rt. The formulated mRNA solution (12.5 μL) was added into the well and the plate was incubated for 24 hours at 37° C. in a 5% CO2 in air atmosphere.
(§3) For the GFP expression analysis, the cell culture medium was removed for the adherent cells and 50 μL of trypsin-EDTA (1×, Lonza) was added and the plate was incubated for 5 minutes at 37° C. 150 μL of complete medium were added to neutralize the trypsin, and the GFP expression was analysed (2000 events) by flow cytometry (Exc 488 nm, Em 520 nm) using a Guava easyCyte 6HT cytometer (Millipore).
(§4) All these new liposomal formulations (Table 1) were assessed to deliver mRNA expressing an enhanced green fluorescent protein (eGFP) as reporter gene in order to determine the gene expression and the transfection efficiency (Table 2). mRNA eGFP capped with a Cap 0 in 5′-end, polyadenylated in 3′-end and modified with 5-methylcytidine and pseudo-uridine was used in the transfection assay. The transfection assay was performed as described in the Experimental section where 150 ng of mRNA eGFP was complexed with 1 μL of 1 mM cationic liposomal formulations in a 5% glucose solution before the addition on the cells. One day post-transfection, the eGFP expression was analyzed by flow cytometry to determine the percentage of transfection. Four different cell lines were used in this assay from easy to transfect cells to hard to transfect cells with plasmid DNA, including human BJ skin fibroblast cells, THP-1 human peripheral blood monocytes, Caco-2 human colon epithelial cells and Jurkat Clone E6-1 human T lymphoblast cells, respectively.

For series [2], the system named is BJ human skin fibroblast cells. The series can be described thus: eGFP mRNA transfection, BJ cells (96-well). Format: cell-based. Particulars: co-lipid DOPE, ratio 1/2; 150 ng eGFP mRNA; 24 h. The method, then:
BJ (ATCC® CRL-2522™) human skin fibroblast cells were grown in Eagle's Minimum Essential Medium with 10% FBS and supplemented with 1% non-essential amino acids, 1 mM sodium pyruvate, 2 mM glutamine and 100 U/mL of penicillin and 100 μg/mL of streptomycin at 37° C. in a 5% CO2 in air atmosphere.
as §1, §2, §3, §4

Series [3] deals with Caco-2 human colon epithelial cells. The series can be described thus: eGFP mRNA transfection, Caco-2 cells (96-well). Format: cell-based. As to conditions: co-lipid DOPE, ratio 1/2; 150 ng eGFP mRNA; 24 h. The method, then:
Caco-2 (ATCC® HTB-37™) human colon epithelial cells were grown in DMEM 4.5 g/L glucose with 20% FBS supplemented with 1% non-essential amino acids, 1 mM sodium pyruvate, 2 mM glutamine and 100 U/mL of penicillin and 100 μg/mL of streptomycin at 37° C. in a 5% CO2 in air atmosphere.
as §1, §2, §3, §4

Series [4] deals with THP-1 human peripheral blood monocyte cells. Kind of series: eGFP mRNA transfection, THP-1 cells (96-well). In kind it is cell-based. As to conditions: ratio 1/2, 150 ng eGFP mRNA, 24 h. The method, then:
THP-1 (ATCC® TIB-202™) human peripheral blood monocyte cells were grown in RPMI-1640 with 10% FBS and supplemented with 10 mM HEPES buffer, 1 mM sodium pyruvate, 0.05 mM 2-mercaptoethanol, 2 mM glutamine, 100 U/mL of penicillin and 100 μg/mL of streptomycin at 37° C. in a 5% CO2 in air atmosphere.
as §1, §2, §3, §4

The test system of series [5] is BJ, THP-1, Caco-2 and Jurkat cells. Kind of series: eGFP mRNA transfection, overall statements on the four cell lines. Format: cell-based, human. Particulars: formulated with co-lipid DOPE or DPyPE. Here is the method: as §1, §2, §3, §4
The mark [6] stands for this setting: co-lipid DOPE, ratio compound/co-lipid 1/2, 1 μL of 1 mM formulation, flow cytometry.

With `CCCCCCCCCCCCCCC(CCCCCCCCCCCCCC)[n+]1ccn(C)c1.[Cl-]` [Compound W4.3, 1-methyl-3-(nonacosan-15-yl)-1H-imidazol-3-ium chloride], the “Transfection efficiency (eGFP %) Jurkat” value in series [1] (setting [6]) is recorded as 0-1%. The “Transfection efficiency (eGFP %) BJ” value in series [2] is recorded as 50-60%. Further, the “Transfection efficiency (eGFP %) CaCO2” value in series [3] was 5-10%. The “Transfection efficiency (eGFP %) THP-1” value in series [4] (co-lipid DOPE) is on record as 30-40%. The “transfection activity (in words)” value in series [5] is on record as “reduced transfection activity”.
For `CCCCCCCCCCCCCCCCC(CCCCCCCCCCCCCCCC)[n+]1ccn(C)c1.[Cl-]` [Compound W5.3, 1-methyl-3-(tritriacontan-17-yl)-1H-imidazol-3-ium chloride], in that order: 0-2%, 60-70%, 5-10%, 50-60% and “reduced transfection activity”.
For `CCCCCCCC/C=C\CCCCCCCCC(CCCCC(CCCCCCCCCCCCCC)CCCCCCCCCCCCCC)[n+]1ccn(C)c1.[Cl-]` (stereo not shown) [Compound W10.7, 1-methyl-3-(24-tetradecyloctatriacont-9-en-19-yl)-1H-imidazol-3-ium chloride], the “Transfection efficiency (eGFP %) Jurkat” value in series [1] (setting [6]) was 25-30%. Further, the “Transfection efficiency (eGFP %) BJ” value in series [2] is listed as 90-95%. Also, the “Transfection efficiency (eGFP %) CaCO2” value in series [3] is 65-75%. The “Transfection efficiency (eGFP %) THP-1” value in series [4] (co-lipid DOPE) was 70-80%.
For `CCCCCCCCCCCCCCCCCCC(CCCCC(CCCCCCCCCCCCCC)CCCCCCCCCCCCCC)[n+]1ccn(C)c1.[Cl-]` (stereo not shown) [Compound W11.7, 1-methyl-3-(24-tetradecyloctatriacontan-19-yl)-1H-imidazol-3-ium chloride], in that order: 15-25%, 90-95%, 35-45% and 80-90%.
For the compound `CCCCCCCCCCCCCCCCCCC(CCCCCCCCCCCCCCCCCC)CCCCC(CCCCCCCCCCCCCCCCCC)[n+]1ccn(C)c1.[Cl-]` (stereo not shown) [Compound W13.7, 1-methyl-3-(24-octadecyldotetracontan-19-yl)-1H-imidazol-3-ium chloride], in series [1] (setting [6]), the “Transfection efficiency (eGFP %) Jurkat” value is reported as 10-20%. Also, in series [2], the “Transfection efficiency (eGFP %) BJ” value is recorded as 65-75%. Besides, the “Transfection efficiency (eGFP %) CaCO2” value in series [3] is 75-80%. For the same compound, the “Transfection efficiency (eGFP %) THP-1” value in series [4] (co-lipid DOPE) is 80-85%.
With `CCCCCCCC/C=C\CCCCCCCCC(CCCCC(CCCCCCCCCCCCCC)CCCCCCCCCCCCCC)[n+]1ccn(CCCC)c1.[Cl-]` (stereo not shown) [Compound W20.7, 1-butyl-3-(24-tetradecyloctatriacont-9-en-19-yl)-1H-imidazol-3-ium chloride], the “Transfection efficiency (eGFP %) Jurkat” value in series [1] (setting [6]) was 60-70%; in series [1] (co-lipid DPyPE, ratio 1/2), 50-60%. Moreover, in series [2], the “Transfection efficiency (eGFP %) BJ” value is 90-95%. Also, the “Transfection efficiency (eGFP %) CaCO2” value in series [3] is reported as 80-85%. The “Transfection efficiency (eGFP %) THP-1” value in series [4] (co-lipid DOPE) is given as 80-90%; in series [4] (co-lipid DPyPE), 65-80%.
For the compound `CCCCCCCCCCCCCCCCCCC(CCCCC(CCCCCCCCCCCCCC)CCCCCCCCCCCCCC)[n+]1ccn(CCO)c1.[Cl-]` (stereo not shown) [Compound W25.7, 1-(2-hydroxyethyl)-3-(24-tetradecyloctatriacontan-19-yl)-1H-imidazol-3-ium chloride], the “Transfection efficiency (eGFP %) Jurkat” value in series [1] (setting [6]) is given as 25-35%. For the same compound, in series [2], the “Transfection efficiency (eGFP %) BJ” value is 90-95%. The “Transfection efficiency (eGFP %) CaCO2” value in series [3] is listed as 45-55%. Moreover, the “Transfection efficiency (eGFP %) THP-1” value in series [4] (co-lipid DOPE) is 80-85%. Besides, the “transfection activity (in words)” value in series [5] is given as “without really affecting the transfection activity”.
For `CCCCCCCCCCCCCCC(CCCCCCCCCCCCCC)CCCCC(CCCCCCCCCCCCCC)[n+]1ccn(CCO)c1.[Cl-]` (stereo not shown) [Compound W26.7, 1-(2-hydroxyethyl)-3-(20-tetradecyltetratriacontan-15-yl)-1H-imidazol-3-ium chloride], in that order: 10-15%, 90-95%, 50-55%, 70-80% and “without really affecting the transfection activity”.
For `CCCCCCCC/C=C\CCCCCCCCC(CCCCC(CCCCCCCCCCCCCC)CCCCCCCCCCCCCC)[n+]1ccn(CC)c1.[Cl-]` (stereo not shown) [Compound W27.7, 1-ethyl-3-(24-tetradecyloctatriacont-9-en-19-yl)-1H-imidazol-3-ium chloride], in that order: 5-10%, 90-95%, 65-75%, 40-50% and “without really affecting the transfection activity”.
Take `CCCCCCCCCCCCCCCCCCC(CCCC(CCCCCCCCCCCCCC)CCCCCCCCCCCCCC)[n+]1ccn(C)c1.[Cl-]` (stereo not shown) [Compound W28.7, 1-methyl-3-(15-tetradecylheptatriacontan-19-yl)-1H-imidazol-3-ium chloride]: the “Transfection efficiency (eGFP %) Jurkat” value in series [1] (setting [6]) is 15-25%. Besides, the “Transfection efficiency (eGFP %) BJ” value in series [2] is recorded as 90-95%. Further, in series [3], the “Transfection efficiency (eGFP %) CaCO2” value was 40-45%. Further, the “Transfection efficiency (eGFP %) THP-1” value in series [4] (co-lipid DOPE) is 80-85%. In series [5], the “transfection activity (in words)” value is listed as “without really affecting the transfection activity”.
In the case of `CCCCCCCCCCCCCCCCC(CCCCCCCCCCCCCCCC)CCC[n+]1ccn(C)c1` [Compound W29.5, 1-methyl-3-(4-hexadecylicosyl)-1H-imidazol-3-ium chloride], in series [1] (setting [6]), the “Transfection efficiency (eGFP %) Jurkat” value is 10-15%. Further, the “Transfection efficiency (eGFP %) THP-1” value in series [4] (co-lipid DOPE) was 30-40%. In series [5], the “transfection activity (in words)” value is given as “without really affecting the transfection activity”.
With `CCCCCCCCCCCCCCCCCCC(CCCCCCCCCCCCCCCCCC)n1cc[n+](C)c1.[Cl-]` [MONI, 1-Methyl-3-(1-Octadecyl-Nonadecyl)-3H-Imidazol-1-ium chloride, reference compound], in series [1] (setting [6]), the “Transfection efficiency (eGFP %) Jurkat” value was 5-10%. Moreover, in series [2], the “Transfection efficiency (eGFP %) BJ” value was 50-60%. In series [3], the “Transfection efficiency (eGFP %) CaCO2” value was 5-10%. The “Transfection efficiency (eGFP %) THP-1” value in series [4] (co-lipid DOPE) is on record as 30-40%.
